# Laboratory results published in the supplement of paper PMC10307832.
# Assays:
# Test in all cases: relative viability (nuclei count vs DMSO), 5 days (fraction); higher = more cells survive
# BAM7 + OSI-027 = compound: CCOC1=CC=CC=C1N=NC2=C(NN(C2=O)C3=NC(=CS3)C4=CC=CC=C4)C [BAM7] + COc1cccc2cc(-c3nc([C@H]4CC[C@H](C(=O)O)CC4)n4ncnc(N)c34)[nH]c12 [OSI-027] (partner 0.5 µM)
# How it was run: (§1)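 Each reported value is a median over duplicate plates. It expresses relative viability: treated-well nuclei count divided by vehicle-well nuclei count. Lung cancer cell lines in 1536-well plates were dosed by pin tool a day after seeding, alone with one drug or with a fixed anchor-drug dose plus five library-drug doses (not always all listed) in √10 steps, and nuclei were counted after 5 days.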
# BAM7 + Phenformin = compound: CCOC1=CC=CC=C1N=NC2=C(NN(C2=O)C3=NC(=CS3)C4=CC=CC=C4)C [BAM7] + N=C(N)NC(=N)NCCc1ccccc1 [Phenformin] (partner 250 µM)
# How it was run: as §1
# BAM7 + Olaparib = compound: CCOC1=CC=CC=C1N=NC2=C(NN(C2=O)C3=NC(=CS3)C4=CC=CC=C4)C [BAM7] + O=C(c1cc(Cc2n[nH]c(=O)c3ccccc23)ccc1F)N1CCN(C(=O)C2CC2)CC1 [Olaparib] (partner 8 µM)
# How it was run: as §1
# [1] = compound: CCn1c(-c2nonc2N)nc2c(C#CC(C)(C)O)ncc(OC[C@H]3CCCNC3)c21 + CCNC(=O)c1noc(-c2cc(C(C)C)c(O)cc2O)c1-c1ccc(CN2CCOCC2)cc1 [Luminespib] (partner 0.01 µM)
# How it was run: as §1
cell line,measurement,setting,value
UMC-11,relative viability,BAM7 + OSI-027; first compound 0.5 µM,0.465
same,relative viability,BAM7 + OSI-027; first compound 5 µM,0.461
same,relative viability,BAM7 + OSI-027; first compound 15.81 µM,0.461
same,relative viability,BAM7 + OSI-027; first compound 50 µM,0.487
same,relative viability,BAM7 + Phenformin; first compound 0.5 µM,0.336
same,relative viability,BAM7 + Phenformin; first compound 5 µM,0.371
same,relative viability,BAM7 + Phenformin; first compound 15.81 µM,0.311
same,relative viability,BAM7 + Phenformin; first compound 50 µM,0.312
same,relative viability,BAM7 + Olaparib; first compound 0.5 µM,0.305
same,relative viability,BAM7 + Olaparib; first compound 5 µM,0.388
same,relative viability,BAM7 + Olaparib; first compound 15.81 µM,0.462
same,relative viability,BAM7 + Olaparib; first compound 50 µM,0.377
same,relative viability,[1]; first compound 0.01 µM,0.97
same,relative viability,[1]; first compound 0.03162 µM,0.922
same,relative viability,[1]; first compound 0.1 µM,0.991
same,relative viability,[1]; first compound 0.3162 µM,0.956
same,relative viability,[1]; first compound 1 µM,1
